Reference: patent US7744936B2, “Method for preparing extract from wild ginseng showing anticancer activity and the composition comprising the same” (Seocksanteo Medical Co., Ltd., priority 2004, dated 2010)
Values after ≈ are worked out from the molar mass of the structure shown.

Key:
[1] = system: U937 cells (human leukemia cell line); test: MTT cell cytotoxicity on U937 cells; type: cell-based; details: U-937, 48 hours, adriamycin, read-out: IC50, cytotoxic effect on U937 cells
Description: (§1) U937 cells (human leukemia cell line), A549 cells (human lung cancer cell line) and MDA-MB-231 (human breast cancer cell line) cells were grown on the culture dish having 100 mm diameter (TPP Co., Ltd., Switzerland) in RPMI1640 (Gibco BRL Co., Ltd., USA), supplemented with 10% fetal bovine serum which was inactivated at 37° C. in 5% CO2 and 95% air condition in a humidified incubator. […] Cells on […] culture dish were treated with 500 μl of trypsin-EDTA (Gibco BRL Co., Ltd., U.S.A.) to separate from the dish and 10 ml of fresh medium was added thereto so as to neutralize trypsin-EDTA solution and obtain cell suspension. 1×10^4 cells/well were seeded in 96-well plate and after 24 hours incubation. […] The plate was incubated for 20 minutes at room temperature and then UV absorbance the samples was measured by microplate reader (ELISA reader, DENLEY Co., Japan) to calculate the cell viability at 570 nm. The cell viability rate of negative control group treated with only medium was calculated as a 100% and those of other sample and positive control were calculated. […] The measured absorbance showing the reduced amount of existing cellular enzyme in MTT was proportioned to survival cell density. […]

[2] = system: A549 cells (human lung cancer cell line); test: MTT cell cytotoxicity on A549 cells; type: cell-based; details: 48 hours, adriamycin, read-out: IC50, cytotoxic effect on A549 cells (text, printed A5497)
Description: as §1

[3] = system: MDA-MB-231 (human breast cancer cell line); test: MTT cell cytotoxicity on MDA-MB-231 cells; type: cell-based; details: 48 hours, adriamycin, read-out: IC50, cytotoxic effect on MDA-MB-231 cells
Description: as §1

[4] = system: Lewis lung carcinoma cells; test: Inhibition of tumor volume increase, Lewis lung carcinoma in mice; type: in vivo, BDF-1 male mice; details: 0.5 mg/mouse intraperitoneally, 2 weeks
Description: To determine the inhibitory effect on the volumetric increase of cancer cell, following experiment was performed by modifying the procedure disclosed in the literature (Teruhiro et al., Cancer Res., 56, pp 2809-14, 1996).
Lewis lung carcinoma cells (1×10^6 cells/well) which had been sub-cultured in vivo of experimental mouse and adjusted the concentration to 1×10^6 cells/well, was injected into the left armpit of BDF-1 male mice (6-week-old). After 24 hours, adriamycin in the concentration of 0.5 and 1 mg/mouse, and the extracts prepared in Comparative Example 1, 2 and Example 1, 2 in the concentration of 50 and 100 μl/mouse were injected into the mice intraperitoneally. The injection of samples was maintained for 2 weeks until the tumor volume of non-treatment group used as control group become to 2 cm^3. After 2 weeks, the tumor volume was calculated by using following mathematical formulae 1 and 2 to measure the inhibition rate of tumor volume.
[formula] L (cm): Length of the tumor W^2 (cm^2): Width of the tumor
[formula] A: Tumor volume (cm^3) of control group B: Tumor volume (cm^3) of sample treatment group

splenic leucocytes = test: Immunostimulating effect on splenic leucocytes (flow cytometry); type: cell-based, BALB c mouse; details: 3 days
Description: To determine the immunostimulating effect of the extract of the present invention, splenic leucocytes (1×10^6 cells/ml) of BALB c mouse were suspended in RPMI1640 medium (Gibco BRL Co., Ltd., USA) supplemented with 100 μg/ml of streptomycin, 100 U/ml of penicillin and 10% fetal bovine serum, and treated with 200 μl/ml of the extracts of Comparative Example 1, 2 and Example 1, 2, respectively. The solution was incubated at 37° C. in 5% CO2 and 95% air condition in a humidified incubator for 3 days and the formation of leucocytes was determined by Flow cytometry. 200 μg/ml of adriamycin treatment group was used as control group.

SMILES: COc1cccc2c1C(=O)c1c(O)c3c(c(O)c1C2=O)C[C@@](O)(C(=O)CO)C[C@@H]3O[C@H]1C[C@H](N)[C@H](O)[C@H](C)O1 [Adriamycin, adriamycin]
- IC50 [1]: 3 µg/mL (≈ 5.52 µM)
- IC50 [2]: 3 µg/mL (≈ 5.52 µM)
- IC50 [3]: 3 µg/mL (≈ 5.52 µM)
- Inhibition effect (%) on tumor volume [4]: 31.20 ± 8.05%
- Decrease of immunity (splenic leucocytes; 200 μg/ml adriamycin): 26.1%
- Increase rate of lymphocyte (%) (splenic leucocytes; concentration 200 μg/ml): −21.6%
